Assay results published in patent US20120122931A1, “INDOLE DERIVATIVE OR PHARMACEUTICALLY ACCEPTABLE SALT THEREOF” (KISSEI PHARMACEUTICAL CO., LTD., priority 2009, published 2012).
“And” between values parts separate entries of the source, which are not always exact repeats. Equal entries are not always repeated.

Legend:
rat EP1 receptor = target: T1, rat EP1 receptor (Rattus norvegicus, UniProt P70597); assay: Test for confirmation of EP1 receptor antagonism: inhibition of prostaglandin E2-induced increase in intracellular calcium concentration (Method A or Method B); format: cell-based; conditions: rat EP1 receptor-expressing cells, prostaglandin E2 10 nM
T1 construct: expressed in transfected cells; host or cells: COS-1 cells, transient transfection with Lipofectamine 2000
T1 sequence (P70597 1-405): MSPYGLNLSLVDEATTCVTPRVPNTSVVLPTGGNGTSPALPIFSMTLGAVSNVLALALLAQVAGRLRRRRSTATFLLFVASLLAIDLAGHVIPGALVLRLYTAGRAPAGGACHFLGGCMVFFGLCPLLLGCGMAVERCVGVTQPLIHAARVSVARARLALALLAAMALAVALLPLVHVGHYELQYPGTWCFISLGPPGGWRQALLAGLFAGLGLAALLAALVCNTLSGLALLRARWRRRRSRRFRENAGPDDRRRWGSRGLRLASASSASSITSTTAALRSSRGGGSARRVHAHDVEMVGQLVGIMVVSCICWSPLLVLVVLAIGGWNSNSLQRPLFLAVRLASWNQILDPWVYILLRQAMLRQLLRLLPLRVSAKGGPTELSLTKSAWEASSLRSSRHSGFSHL
Procedure: (1) Preparation of Rat EP1 Expression vector
Using Rat Kidney BD Marathon-Ready cDNA (Nippon Becton Dickinson Company, Ltd.) as a template, a forward primer shown in SEQ ID NO. 1, and a reverse primer shown in SEQ ID NO. 2, a first run of PCR was carried out using KOD-Plus-Ver 2.0 (Toyobo Co., Ltd.). Further, using this amplification product as a template, a forward primer shown in SEQ ID NO. 3, and a reverse primer shown in SEQ ID NO. 4, a second run of PCR was carried out in the same manner. The amplification product obtained by the second run of PCR was incorporated into a vector (pcDNA3.1 D/V5-His-TOPO (registered trademark), Invitrogen Japan K. K.). By a conventional method, the vector containing this amplification product was introduced to E. coli (One Shot TOP10 Competent Cells, Invitrogen Corporation) to transform. This transformed E. coli was cultured in an LB agar medium for one day. After the culture, colonies were selected and cultured in an LB liquid medium containing 50 μg/mL of ampicillin. After the culture, the vector was purified using a QIAprep Spin Miniprep Kit (Qiagen K. K.). The base sequence of the insertion site of this vector (SEQ ID NO. 5) was compared with the rat EP1 base sequence (Ptger1) registered as an accession number NM_013100 in well-known database (NCBI), and as a result, they all matched except for a single base. Further, the amino acid sequence translated by the base sequence completely matched the amino acid sequence of the rat EP1 receptor registered as an NCBI accession number NP_037232. Therefore, it was confirmed that the cloned gene sequence was a base sequence of the rat EP1 receptor and the obtained amino acid sequence was that of the rat EP1 receptor. The pcDNA3.1 D/V5-His-TOPO (registered trademark) to which the nucleic acid shown in SEQ ID NO. 5 had been inserted was taken as a rat EP1-expressing vector.
(2) Preparation of Rat EP1 Receptor-Expressing Cells
COS-1 cells (Dainippon Sumitomo Pharma Co., Ltd.) were cultured until it reached confluence in an incubator at 37° C. under a 5% CO2 gas condition, using a D-MEM liquid medium (high glucose and L-glutamine contained, Invitrogen Corporation) to which a penicillin-streptomycin solution (Invitrogen Corporation, final concentration: 100 U/mL as benzylpenicillin; 100 μg/mL as streptomycin) as an antibiotic, MEM nonessential amino acids (Invitrogen Corporation, final Concentration: 0.1 mM), and fetal calf serum (Sanko Junyaku Co., Ltd., final concentration: 10%) were added.
(2-2) COS-1 Cell Subculture
The cells that had reached confluence were stripped with 0.05% trypsin/0.53 mM EDTA 4Na (Invitrogen Japan K. K.) and resuspended in the above liquid medium. The resuspended cells were diluted and cultured in the above liquid medium at a spread ratio from 1:4 to 1:8.
(2-3) Preparation of Cells for Introduction of Rat EP1-Expressing Vector
The cells that had reached confluence were stripped with 0.05% trypsin/0.53 mM EDTA.4Na, and resuspended in a D-MEM liquid medium (high glucose and L-glutamine contained, Invitrogen Corporation) to which an MEM nonessential amino acid (final concentration: 0.1 mM) and fetal calf serum (final concentration: 10%) were added. In each well of a Poly D-lysine-coated 96-well microplate (BD BioCoat (registered trademark), Nippon Becton Dickinson Company, Ltd.), this resuspended cell suspension culture was prepared to be 5×10^4 cells/well in 100 μL of the liquid medium, and seeded thereon. After seeding, the cells were cultured in an incubator at 37° C. under a 5% CO2 gas condition. At a point when the cells for introduction of a rat EP1-expressing vector were adhered (about 2 hours after seeding), introduction of the rat EP1-expressing vector was carried out in the following order.
(2-4) Introduction of Rat EP1-Expressing Vector
For introduction of the rat EP1-expressing vector, Lipofectamine 2000 (Invitrogen Japan K. K.) was used. […]

[1] = test system: sulprostone-induced bladder contraction; assay: Inhibitory effect of compound on sulprostone-induced bladder contraction; format: in vivo; conditions: test agent 1.0 mg/kg intravenously, sulprostone 0.3 mg/kg subcutaneously, female SD rats
Procedure: Female SD rats were used. Under urethane anesthesia (1.25 g/kg, administered subcutaneously), a tracheal cannula (Size 8, HIBIKI) and a femoral vein cannula for administration (23G needle-equipped PESO) were inserted thereinto. The bladder cannula (PESO) was inserted from the bladder apex. The bladder cannula was connected to a three-way stopcock, and then, one was connected to a pressure transducer and the other was connected to a syringe filled with saline. Saline was injected to the bladder at an injection rate of 3.6 mL/hour and the bladder contraction pressure was recorded at the time of injection with a recorder (RECTI-HORITZ-8K, NEC Corporation). After 10 minutes from stabilization of the bladder contraction pressure during urination, sulprostone was administered subcutaneously (0.3 mg/kg). Then, at the time point when the bladder contraction pressure became constant, a test agent was administered intravenously (1.0 mg/kg). An average bladder contraction pressure during the 10 minutes period before administration of sulprostone was taken as a baseline (0%). Further, an average bladder contraction pressure during the 10 minutes period before administration of the test agent was taken as a maximum bladder contraction pressure (100%). […] The ratio of this measured value to the maximum bladder contraction pressure was calculated by the following equation and taken as an average bladder contraction rate after administration of the test agent: (Average Bladder Contraction Rate after Administration of Test Agent (%))=(Average Bladder Contraction Pressure after Administration of Test Agent)/(Maximum Bladder Contraction Pressure). In addition, the difference between the maximum bladder contraction rate (100%) and the average bladder contraction rate (%) after administration of the test agent was calculated by the following equation and taken as a bladder contraction inhibition rate of the test agent: (Bladder Contraction Inhibition Rate)=100%−(Average Bladder Contraction Rate after Administration of Test Agent (%)).

[2] = Method A (Fluo-4 NW, FlexStation)
[3] = Method B (Calcium kit II Fluo 4, FDSS 7000)

SMILES | IC50 (rat EP1 receptor; [2]) [nM] | IC50 (rat EP1 receptor; [3]) | Bladder Contraction Inhibition Rate (%) 15 Minutes [1] [%] | Bladder Contraction Inhibition Rate (%) [1] [%]
COc1ccc2c(Cc3cccc(C(=O)O)n3)c(-c3ccccc3)[nH]c2c1 [Example 4-1, 6-(6-methoxy-2-phenyl-1H-indol-3-ylmethyl)pyridine-2-carboxylic acid] | 10 | – | 90.1 | 94.2
COc1ccc2c(Cc3cccc(C(=O)O)c3)c(-c3ccccc3)[nH]c2c1 [Example 4-2, 3-(6-methoxy-2-phenyl-1H-indol-3-ylmethyl)benzoic acid] | 32 | – | 78.3 | 80.4
COc1ccc2c(Cc3cccc(C(=O)O)n3)c(-c3ccsc3)[nH]c2c1 [Example 11-1, 6-(6-methoxy-2-thiophen-3-yl-1H-indol-3-ylmethyl)pyridine-2-carboxylic acid] | 11 | – | 86.1 | 76.8
COc1ccc2c(Cc3cccc(C(=O)O)n3)c(-c3cccc(F)c3)[nH]c2c1 [Example 11-5, 6-[2-(3-fluorophenyl)-6-methoxy-1H-indol-3-ylmethyl]pyridine-2-carboxylic acid] | – | 14 nM | 79.7 | 81.9
COc1ccc2c(Cc3cccc(C(=O)O)n3)c(-c3csc(C)c3)[nH]c2c1 [Example 11-20, 6-[6-methoxy-2-(5-methylthiophen-3-yl)-1H-indol-3-ylmethyl]pyridine-2-carboxylic acid] | 26 | – | 81.4 | 82.9

More lines, main results first:

IC50 (rat EP1 receptor; [2]) [nM] | IC50 (rat EP1 receptor; [3]) | SMILES | Bladder Contraction Inhibition Rate (%) 15 Minutes [1] [%] | Bladder Contraction Inhibition Rate (%) [1] [%]
– | 46 nM | CCOc1cc2[nH]c(-c3ccsc3)c(Cc3cccc(C(=O)O)n3)c2cc1C [Example 16-93, 6-(6-ethoxy-5-methyl-2-thiophen-3-yl-1H-indol-3-ylmethyl)pyridine-2-carboxylic acid] | – | –
– | 32 nM | COc1cc2[nH]c(C(C)(C)C)c(Cc3cccc(C(=O)O)n3)c2cc1F [Example 16-97, 6-(2-tert-butyl-5-fluoro-6-methoxy-1H-indol-3-ylmethyl)pyridine-2-carboxylic acid] | – | –
– | 47 nM | COc1cc2[nH]c(C(C)(C)C)c(Cc3cccc(C(=O)O)n3)c2cc1C [Example 16-98, 6-(2-tert-butyl-6-methoxy-5-methyl-1H-indol-3-ylmethyl)pyridine-2-carboxylic acid] | – | –
– | 44 nM and 26 nM | Cc1cc2c(Cc3cccc(C(=O)O)n3)c(-c3ccccc3)[nH]c2cc1C1CC1 [Example 16-100, 6-(6-cyclopropyl-5-methyl-2-phenyl-1H-indol-3-ylmethyl)pyridine-2-carboxylic acid] | – | –
– | 49 nM | Cc1cc2c(Cc3cccc(C(=O)O)n3)c(-c3ccsc3)[nH]c2cc1C1CC1 [Example 16-102, 6-(6-cyclopropyl-5-methyl-2-thiophen-3-yl-1H-indol-3-ylmethyl)pyridine-2-carboxylic acid] | – | –
– | 26 nM | COc1cc2c(Cc3cccc(C(=O)O)n3)c(-c3ccoc3)[nH]c2cc1Cl [Example 16-105, 6-(6-chloro-2-furan-3-yl-5-methoxy-1H-indol-3-ylmethyl)pyridine-2-carboxylic acid] | – | –
– | 40 nM | CCC(C)c1[nH]c2cc(OC)c(Cl)cc2c1Cc1cccc(C(=O)O)n1 (stereo not shown) [Example 16-107, 6-(2-sec-butyl-5-chloro-6-methoxy-1H-indol-3-ylmethyl)pyridine-2-carboxylic acid] | – | –
– | 19 nM | COc1cc2c(Cc3cccc(C(=O)O)n3)c(-c3ccsc3)[nH]c2cc1C [Example 16-108, 6-(5-methoxy-6-methyl-2-thiophen-3-yl-1H-indol-3-ylmethyl)pyridine-2-carboxylic acid] | – | –
– | 35 nM | COc1cc2[nH]c(C(C)C)c(Cc3cccc(C(=O)O)n3)c2cc1Cl [Example 16-109, 6-(5-chloro-2-isopropyl-6-methoxy-1H-indol-3-ylmethyl)pyridine-2-carboxylic acid] | – | –
– | 39 nM | COc1cc2[nH]c(C(C)C)c(Cc3cccc(C(=O)O)n3)c2cc1F [Example 18-1, 6-(5-fluoro-2-isopropyl-6-methoxy-1H-indol-3-ylmethyl)pyridine-2-carboxylic acid] | – | –
